pEC50: −log10 of the molar value.
Test system: C6/36 Aedes albopictus cell line infected with Wolbachia pipientis (Wolbachia strain wAlbB)
Assay: In vitro insect cell line assay (anti-Wolbachia screen, SYTO 11 high content imaging)
Assay type: cell-based
Settings: 168 h; C6/36 Aedes albopictus cells infected with Wolbachia pipientis wAlbB, 7 days incubation, SYTO 11 imaging; read-out: In vitro anti-Wolbachia activity
In short: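 SYTO 11 staining (15 min), high-content imaging and texture analysis were the read-out on day 7. Before that, C6/36 mosquito cells carrying Wolbachia strain wAlbB were incubated at 26 °C with test compound at 5 μM final, alongside DMSO-only control wells.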

Row | Structure (SMILES) | pEC50
1 | CC1(C#N)CCN(c2nc(NCc3cccnc3C(F)(F)F)c3cccnc3n2)CC1 [Example 250, 4-methyl-1-(4-(((2-(trifluoromethyl)pyridin-3-yl)methyl)amino)pyrido[2,3-d]pyrimidin-2-yl)piperidine-4-carbonitrile] | 9.00 to 11.00
2 | N#CC1CCCN(c2nc(NCc3cccnc3C(F)(F)F)c3cccnc3n2)C1 (stereo not drawn) [Example 251] | 8.00 to 9.00
3 | FC1(F)CC2(CCN(c3nc(NCc4cccnc4C(F)(F)F)c4cccnc4n3)CC2)C1 [Example 252, 2-(2,2-difluoro-7-azaspiro[3.5]nonan-7-yl)-N-((2-(trifluoromethyl)pyridin-3-yl)methyl)pyrido[2,3-d]pyrimidin-4-amine] | 9.00 to 11.00
4 | FC(F)(F)c1ncccc1CNc1nc(N2CCOCC2C2CC2)nc2ncccc12 (stereo not drawn) [Example 253, 2-(3-cyclopropylmorpholino)-N-((2-(trifluoromethyl)pyridin-3-yl)methyl)pyrido[2,3-d]pyrimidin-4-amine] | 8.00 to 9.00
5 | CC1CN(c2nc(NCc3cccnc3C(F)(F)F)c3cccnc3n2)C[C@H](C)O1 (stereo partly drawn) [Example 254, 2-((6S)-2,6-dimethylmorpholino)-N-((2-(trifluoromethyl)pyridin-3-yl)methyl)pyrido[2,3-d]pyrimidin-4-amine] | 9.00 to 11.00
6 | FC(F)(F)c1ncccc1CNc1nc(N2CC3CC2CO3)nc2ncccc12 (stereo not drawn) [Example 255, 2-(2-oxa-5-azabicyclo[2.2.1]heptan-5-yl)-N-((2-(trifluoromethyl)pyridin-3-yl)methyl)pyrido[2,3-d]pyrimidin-4-amine] | 8.00 to 9.00
7 | FC(F)(F)c1ncccc1CNc1nc(N2CCOC3(CC3)C2)nc2ncccc12 [Example 256, 2-(4-oxa-7-azaspiro[2.5]octan-7-yl)-N-((2-(trifluoromethyl)pyridin-3-yl)methyl)pyrido[2,3-d]pyrimidin-4-amine] | > 11.00
8 | N#CC1CN(c2nc(NCc3cccnc3C(F)(F)F)c3cccnc3n2)CCO1 (stereo not drawn) [Example 257, 4-(4-(((2-(trifluoromethyl)pyridin-3-yl)methyl)amino)pyrido[2,3-d]pyrimidin-2-yl)morpholine-2-carbonitrile] | 7.00 to 8.00
9 | FCC1CCCN(c2nc(NCc3cccnc3C(F)(F)F)c3cccnc3n2)C1 (stereo not drawn) [Example 258, 2-(3-(fluoromethyl)piperidin-1-yl)-N-((2-(trifluoromethyl)pyridin-3-yl)methyl)pyrido[2,3-d]pyrimidin-4-amine] | > 11.00
10 | FC(F)(F)c1ncccc1CNc1nc(N2CCCCC2C(F)(F)F)nc2ncccc12 (stereo not drawn) [Example 259, 2-(2-(trifluoromethyl)piperidin-1-yl)-N-((2-(trifluoromethyl)pyridin-3-yl)methyl)pyrido[2,3-d]pyrimidin-4-amine] | 9.00 to 11.00
11 | FC1(F)CC2(CCN(c3nc(NCc4ccccc4C(F)(F)F)c4cccnc4n3)CC2)C1 [Example 260, 2-(2,2-difluoro-7-azaspiro[3.5]nonan-7-yl)-N-(2-(trifluoromethyl)benzyl)pyrido[2,3-d]pyrimidin-4-amine] | 8.00 to 9.00
12 | CC1(C#N)CCN(c2nc(NCc3ccccc3C(F)(F)F)c3cccnc3n2)CC1 [Example 261, (2-(trifluoromethyl)pyridin-3-yl)metha 4-methyl-1-(4-((2-(trifluoromethyl)benzyl)amino)pyrido[2,3-d]pyrimidin-2-yl)piperidine-4-carbonitrile] | > 11.00
13 | N#CC1CCCN(c2nc(NCc3ccccc3C(F)(F)F)c3cccnc3n2)C1 (stereo not drawn) [Example 262, 1-(4-((2-(trifluoromethyl)benzyl)amino)pyrido[2,3-d]pyrimidin-2-yl)piperidine-3-carbonitrile] | 9.00 to 11.00
14 | CS(=O)(=O)C1CCN(c2nc(NCc3cccnc3C(F)(F)F)c3cccnc3n2)C1 (stereo not drawn) [Example 263, 2-(3-(methylsulfonyl)pyrrolidin-1-yl)-N-((2-(trifluoromethyl)pyridin-3-yl)methyl)pyrido[2,3-d]pyrimidin-4-amine] | 6.00 to 7.00
15 | FC(F)(F)c1ncccc1CNc1nc(N2CCCC2C(F)(F)F)nc2ncccc12 (stereo not drawn) [Example 264, N-((2-(trifluoromethyl)pyridin-3-yl)methyl)-2-(2-(trifluoromethyl)pyrrolidin-1-yl)pyrido[2,3-d]pyrimidin-4-amine] | > 11.00
16 | FC(F)(F)c1ncccc1CNc1nc(N2CCC(Cl)C2)nc2ncccc12 (stereo not drawn) [Example 265, 2-(3-chloropyrrolidin-1-yl)-N-((2-(trifluoromethyl)pyridin-3-yl)methyl)pyrido[2,3-d]pyrimidin-4-amine] | > 11.00
17 | FC(F)(F)c1ccccc1CNc1nc(N2CCC(C(F)(F)F)C2)nc2ncccc12 (stereo not drawn) [Example 266, N-(2-(trifluoromethyl)benzyl)-2-(3-(trifluoromethyl)pyrrolidin-1-yl)pyrido[2,3-d]pyrimidin-4-amine] | 8.00 to 9.00
18 | FC(F)(F)c1ccccc1CNc1nc(N2CC3CC2CO3)nc2ncccc12 (stereo not drawn) [Example 267, 2-(2-oxa-5-azabicyclo[2.2.1]heptan-5-yl)-N-(2-(trifluoromethyl)benzyl)pyrido[2,3-d]pyrimidin-4-amine] | > 11.00

Row | Structure (SMILES) | pEC50
19 | CC1CN(c2nc(NCc3ccccc3C(F)(F)F)c3cccnc3n2)C[C@H](C)O1 (stereo partly drawn) [Example 268, 2-((6S)-2,6-dimethylmorpholino)-N-(2-(trifluoromethyl)benzyl)pyrido[2,3-d]pyrimidin-4-amine] | 7.00 to 8.00
20 | CC(C)C1COCCN1c1nc(NCc2cccnc2C(F)(F)F)c2cccnc2n1 (stereo not drawn) [Example 269, 2-(3-isopropylmorpholino)-N-((2-(trifluoromethyl)pyridin-3-yl)methyl)pyrido[2,3-d]pyrimidin-4-amine] | 8.00 to 9.00
21 | C[C@@H]1[C@@H](C)OCCN1c1nc(NCc2cccnc2C(F)(F)F)c2cccnc2n1 [Example 270, 2-((2R,3R)-2,3-dimethylmorpholino)-N-((2-(trifluoromethyl)pyridin-3-yl)methyl)pyrido[2,3-d]pyrimidin-4-amine] | 8.00 to 9.00
22 | C[C@@H]1CO[C@@H](C)CN1c1nc(NCc2cccnc2C(F)(F)F)c2cccnc2n1 [Example 271, 2-((2S,5R)-2,5-dimethylmorpholino)-N-((2-(trifluoromethyl)pyridin-3-yl)methyl)pyrido[2,3-d]pyrimidin-4-amine] | 9.00 to 11.00
23 | FC(F)(F)c1ncccc1CNc1nc(N2CCOC3(CCCC3)C2)nc2ncccc12 [Example 272, 2-(6-oxa-9-azaspiro[4.5]decan-9-yl)-N-((2-(trifluoromethyl)pyridin-3-yl)methyl)pyrido[2,3-d]pyrimidin-4-amine] | 9.00 to 11.00
24 | FC(F)(F)OC1CCN(c2nc(NCc3cccnc3C(F)(F)F)c3cccnc3n2)CC1 [Example 273, 2-(4-(trifluoromethoxy)piperidin-1-yl)-N-((2-(trifluoromethyl)pyridin-3-yl)methyl)pyrido[2,3-d]pyrimidin-4-amine] | > 11.00
25 | FC(F)C1CN(c2nc(NCc3cccnc3C(F)(F)F)c3cccnc3n2)C1 [Example 274, 2-(3-(difluoromethyl)azetidin-1-yl)-N-((2-(trifluoromethyl)pyridin-3-yl)methyl)pyrido[2,3-d]pyrimidin-4-amine] | 8.00 to 9.00
26 | CC1COC[C@@H](C)N1c1nc(NCc2cccnc2C(F)(F)F)c2cccnc2n1 (stereo partly drawn) [Example 275, 2-((3R)-3,5-dimethylmorpholino)-N-((2-(trifluoromethyl)pyridin-3-yl)methyl)pyrido[2,3-d]pyrimidin-4-amine] | 9.00 to 11.00
27 | FC(F)C1CN(c2nc(NCc3ccccc3C(F)(F)F)c3cccnc3n2)C1 [Example 276, 2-(3-(difluoromethyl)azetidin-1-yl)-N-(2-(trifluoromethyl)benzyl)pyrido[2,3-d]pyrimidin-4-amine] | > 11.00
28 | CC1COC[C@@H](C)N1c1nc(NCc2ccccc2C(F)(F)F)c2cccnc2n1 (stereo partly drawn) [Example 277, 2-((3R)-3,5-dimethylmorpholino)-N-(2-(trifluoromethyl)benzyl)pyrido[2,3-d]pyrimidin-4-amine] | 7.00 to 8.00
29 | FC(F)(F)c1ncccc1CNc1nc(N2CCOC(C3CC3)C2)nc2ncccc12 (stereo not drawn) [Example 278, 2-(2-cyclopropylmorpholino)-N-((2-(trifluoromethyl)pyridin-3-yl)methyl)pyrido[2,3-d]pyrimidin-4-amine] | 9.00 to 11.00
30 | C[C@H]1CN(c2nc(NCc3cccnc3C(F)(F)F)c3cccnc3n2)[C@@H](C)CO1 [Example 279, 2-((2S,5S)-2,5-dimethylmorpholino)-N-((2-(trifluoromethyl)pyridin-3-yl)methyl)pyrido[2,3-d]pyrimidin-4-amine] | 9.00 to 11.00
31 | FC(F)O[C@@H]1CCN(c2nc(NCc3cccnc3C(F)(F)F)c3cccnc3n2)C1 [Example 280, (R)-2-(3-(difluoromethoxy)pyrrolidin-1-yl)-N-((2-(trifluoromethyl)pyridin-3-yl)methyl)pyrido[2,3-d]pyrimidin-4-amine] | 9.00 to 11.00
32 | FC(F)O[C@H]1CCN(c2nc(NCc3cccnc3C(F)(F)F)c3cccnc3n2)C1 [Example 281, (S)-2-(3-(difluoromethoxy)pyrrolidin-1-yl)-N-((2-(trifluoromethyl)pyridin-3-yl)methyl)pyrido[2,3-d]pyrimidin-4-amine] | 9.00 to 11.00
33 | FC(F)C1CN(c2nc(NCc3cccnc3C(F)(F)F)c3cccnc3n2)CCO1 (stereo not drawn) [Example 282, 2-(2-(difluoromethyl)morpholino)-N-((2-(trifluoromethyl)pyridin-3-yl)methyl)pyrido[2,3-d]pyrimidin-4-amine] | 9.00 to 11.00
34 | N#CC1CN(c2nc(NCc3ccccc3C(F)(F)F)c3cccnc3n2)CCO1 (stereo not drawn) [Example 283, 4-(4-((2-(trifluoromethyl)benzyl)amino)pyrido[2,3-d]pyrimidin-2-yl)morpholine-2-carbonitrile] | 9.00 to 11.00
35 | FC(F)C1CN(c2nc(NCc3ccccc3C(F)(F)F)c3cccnc3n2)CCO1 (stereo not drawn) [Example 284, 2-(2-(difluoromethyl)morpholino)-N-(2-(trifluoromethyl)benzyl)pyrido[2,3-d]pyrimidin-4-amine] | > 11.00
36 | FC(F)(F)c1ccccc1CNc1nc(N2CCOCC23CCC3)nc2ncccc12 [Example 285, 2-(8-oxa-5-azaspiro[3.5]nonan-5-yl)-N-(2-(trifluoromethyl)benzyl)pyrido[2,3-d]pyrimidin-4-amine] | 7.00 to 8.00

— patent US11518760B2 (Liverpool School of Tropical Medicine, priority 2017, dated 2022)
